Measured values as given in US20230227466A1, “SUBSTITUTED THIENOPYRIMIDINES THAT INTERACT WITH THE RAS SUPERFAMILY FOR THE TREATMENT OF CANCERS, INFLAMMATORY DISEASES, RASOPATHIES, AND FIBROTIC DISEASE” (SHY Therapeutics, LLC, priority 2020, published 2023).
Like-named read-outs stand apart in the source and are kept apart here.

Experiments:
KRas G12C mutant = molecular target: T1, KRas G12C mutant (Homo sapiens, UniProt P01116, G12C); experiment: Ras GTP binding domain inhibition assay (labeled-GTP competition, cell-free)
T1 construct: made in house
Summary of the method: (§1)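 Labeled-GTP competition read out as bound Cy3/Cy5-GTP fluorescence after washes, with 100 nM tracer for 45 min at RT. Before tracer, compounds at 20 μM, or a dilution series for IC50, sat 3 h at RT on the Ni-immobilized His-tagged GTPase. Sos GEF (10-30 μg/mL) was optionally present for the last hour.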

KRas G12D mutant = molecular target: T2, KRas G12D mutant (Homo sapiens, UniProt P01116, G12D); experiment: as above
T2 construct: made in house
Summary of the method: as §1

[1] = tested on: MIA-PaCa-2 pancreatic cancer cell line (KRAS G12C); experiment: Cell proliferation assay (CellTiter 96 Aqueous One); type: cell-based; details: Homo sapiens; for IC50: MIA PaCa-2, MIA PaCa-2; for inhibition at 10 µM: MIA PaCa-2, read-out: % inh cell proliferation (10 μM) in MIA PaCa-2
Summary of the method: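 Percent inhibition of proliferation is derived from MTS absorbance data. Cells seeded at 2000–5000 per well were grown overnight before treatment. Compounds, at 10 μM final or in dilution series, stayed on cells for 2–4 days in medium containing 10% FBS and 0.3% DMSO.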

Rac-1 = Rac-1 (Homo sapiens, UniProt P63000); experiment: Ras GTP binding domain inhibition assay (labeled-GTP competition, cell-free); design: made in house
Summary of the method: as §1

KRas wild type = KRas wild type (Homo sapiens, UniProt P01116); experiment: as above; design: made in house
Summary of the method: as §1

Rho-A = Rho-A (Homo sapiens, UniProt P61586); experiment: as above; design: made in house
Summary of the method: as §1

[2] = tested on: Akt phosphorylation in Panc-1 cells; experiment: Western AKT cell-based phosphorylation assay; design: species or system human; details: at 10 μM, values in brackets < > are activation %, not inhibition
Summary of the method: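 Panc-1 cells starved overnight in 0.5% FBS, exposed to compound at 10 μM (0.3% DMSO) for 6 h at 37° C, then stimulated with 1.5 ng/ml EGF for 15 min. Lysates probed by western blot with anti-phospho-Akt (Ser473), equal protein loading checked by Ponceau S.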

[3] = with SOS, read-out: KRas G12C mutant + SOS: % inh.
[4] = without SOS, read-out: KRas G12C mutant: % inh.
[5] = with SOS, read-out: KRas G12D mutant + SOS: % inh.
[6] = without SOS, read-out: KRas G12D mutant: % inh.
[7] = with SOS, read-out: Rac-1 + SOS: % inh.
[8] = without SOS, read-out: Rac-1: % inh.
[9] = with SOS, read-out: KRas wild type + SOS: % inh.
[10] = without SOS, read-out: KRas wild type: % inh.
[11] = with SOS, read-out: Rho-A + SOS: % inh.
[12] = without SOS, read-out: Rho-A: % inh.

SMILES | inhibition at 20 µM (KRas G12C mutant; [3]) [%] | inhibition at 20 µM (KRas G12C mutant; [4]) [%] | inhibition at 20 µM (KRas G12D mutant; [5]) [%] | inhibition at 20 µM (KRas G12D mutant; [6]) [%] | IC50 [1] [µM] | inhibition at 10 µM [1] [%] | inhibition at 20 µM (Rac-1; [7]) [%] | inhibition at 20 µM (Rac-1; [8]) [%] | inhibition at 20 µM (KRas wild type; [9]) [%] | inhibition at 20 µM (KRas wild type; [10]) [%] | inhibition at 20 µM (Rho-A; [11]) [%] | inhibition at 20 µM (Rho-A; [12]) [%] | % inh of AKT phosphorylation in PANC-1 [2]
COCCCNc1nc(-c2nccn2C)nc2sc(-c3ccn(C(C)C)n3)c(C)c12 [Compound 36, 6-(1-Isopropyl-1H-pyrazol-3-yl)-N-(3-methoxypropyl)-5-methyl-2-(1-methyl-1H-imidazol-2-yl)thieno[2,3-d]pyrimidin-4-amine] | 76 to 100 | 76 to 100 | 76 to 100 | 51 to 75 | < 1 | 76 to 100 | 76 to 100 | 76 to 100 | 76 to 100 | 76 to 100 | 76 to 100 | 26 to 50 | 0 (0% inhibition)
CO[C@H]1CN(c2nc(-c3nccn3C)nc3sc(-c4ccn(C(C)C)n4)c(C)c23)C[C@H]1OC [Compound 39, rac-4-((3S,4R)-3,4-Dimethoxypyrrolidin-1-yl)-6-(1-isopropyl-1H-pyrazol-3-yl)-5-methyl-2-(1-methyl-1H-imidazol-2-yl)thieno[2,3-d]pyrimidine] | 51 to 75 | 51 to 75 | 76 to 100 | 51 to 75 | 5 to 10 | 76 to 100 | 51 to 75 | 51 to 75 | 51 to 75 | 76 to 100 | 76 to 100 | 76 to 100 | <B>
CO[C@H]1C[C@@H](Nc2nc(-c3nccn3C)nc3sc(-c4ccn(C(C)C)n4)c(C)c23)C[C@H]1OC [Compound 42, N-((1r,3R,4S)-3,4-Dimethoxycyclopentyl)-6-(1-isopropyl-1H-pyrazol-3-yl)-5-methyl-2-(1-methyl-1H-imidazol-2-yl)thieno[2,3-d]pyrimidin-4-amine] | 76 to 100 | 76 to 100 | 51 to 75 | 76 to 100 | 5 to 10 | 51 to 75 | 51 to 75 | 51 to 75 | 76 to 100 | 51 to 75 | 76 to 100 | 51 to 75 | <D>
CO[C@H]1C[C@H](Nc2nc(-c3nccn3C)nc3sc(-c4ccn(C(C)C)n4)c(C)c23)C[C@H]1OC [Compound 43, N-((1s,3R,4S)-3,4-Dimethoxycyclopentyl)-6-(1-isopropyl-1H-pyrazol-3-yl)-5-methyl-2-(1-methyl-1H-imidazol-2-yl)thieno[2,3-d]pyrimidin-4-amine] | 76 to 100 | 1 to 25 | 76 to 100 | 76 to 100 | 5 to 10 | 51 to 75 | 51 to 75 | 26 to 50 | 76 to 100 | 26 to 50 | 76 to 100 | 76 to 100 | <D>
Cc1c(-c2ccn(C(C)C)n2)sc2nc(-c3nccn3C)nc(NCCc3nnn[nH]3)c12 [Compound 46, N-(2-(1H-Tetrazol-5-yl)ethyl)-6-(1-isopropyl-1H-pyrazol-3-yl)-5-methyl-2-(1-methyl-1H-imidazol-2-yl)thieno[2,3-d]pyrimidin-4-amine] | 51 to 75 | 51 to 75 | 76 to 100 | 26 to 50 | > 10 | 1 to 25 | 76 to 100 | 76 to 100 | 51 to 75 | 76 to 100 | 76 to 100 | 76 to 100 | A (1-25% inhibition)
CO[C@H]1C[C@@H](CNc2nc(-c3nccn3C)nc3sc(-c4ccn(C(C)C)n4)c(C)c23)C1 [Compound 47, 6-(1-Isopropyl-1H-pyrazol-3-yl)-N-(((1s,3s)-3-methoxycyclobutyl)methyl)-5-methyl-2-(1-methyl-1H-imidazol-2-yl)thieno[2,3-d]pyrimidin-4-amine] | 76 to 100 | 51 to 75 | 51 to 75 | 51 to 75 | < 1 | 76 to 100 | 51 to 75 | 51 to 75 | 76 to 100 | 76 to 100 | 76 to 100 | 76 to 100 | 0 (0% inhibition)
